Our source for the IC50 and Inhibition values is ChEMBL document CHEMBL1124634, “Synthesis and antirhinovirus activity of 6-(dimethylamino)-2-(trifluoromethyl)-9-(substituted benzyl)-9H-purines” (J Med Chem, 1989).

Structures are written as SMILES.

Experiment [1] deals with Human rhinovirus sp. The experiment can be described thus: Antiviral activity against rhinoviral 29 serotype in a plaque inhibition assay using monolayers of M-HeLa cells. Format: functional, organism-based.
Experiment [2] relates to Human rhinovirus sp. The experiment can be described thus: Antiviral activity against rhinoviral 30 serotype in a plaque inhibition assay using monolayers of M-HeLa cells. Format: functional, organism-based.
For experiment [3], the system named is Human rhinovirus sp. Nature of the experiment: Antiviral activity against rhinoviral 8 serotype in a plaque inhibition assay using monolayers of M-HeLa cells. Format: functional, organism-based.
Experiment [4] concerns Human rhinovirus sp. Nature of the experiment: Antiviral activity against rhinoviral 14 serotype in a plaque inhibition assay using monolayers of M-HeLa cells. In kind it is functional, organism-based.
Experiment [5] deals with Human rhinovirus sp. The experiment can be described thus: Antiviral activity against rhinoviral 16 serotype in a plaque inhibition assay using monolayers of M-HeLa cells. Format: functional, organism-based.
Experiment [6] has as its system Human rhinovirus sp. The experiment can be described thus: Antiviral activity against rhinoviral 12 serotype in a plaque inhibition assay using monolayers of M-HeLa cells. In kind it is functional, organism-based.
The test system of experiment [7] is Human rhinovirus sp. The experiment can be described thus: Antiviral activity against rhinoviral-18 serotype in a plaque inhibition assay using monolayers of M-HeLa cells. In kind it is functional, organism-based.
The subject of experiment [8] is Human rhinovirus sp. Nature of the experiment: Antiviral activity against rhinoviral-1A serotype in a plaque inhibition assay using monolayers of M-HeLa cells. Format: functional, organism-based.
For experiment [9], the system named is Human rhinovirus sp. Nature of the experiment: Antiviral activity against rhinoviral-1B serotype in a plaque inhibition assay using monolayers of M-HeLa cells. Format: functional, organism-based.
Experiment [10] has as its system Human rhinovirus sp. The experiment can be described thus: Percent inhibitory activity at 8 uM against rhinoviral 13 serotype in a plaque inhibition assay using monolayers of M-HeLa cells. In kind it is functional.
Experiment [11] has as its system Human rhinovirus sp. Nature of the experiment: Percent inhibitory activity at 8 uM against rhinoviral 15 serotype in a plaque inhibition assay using monolayers of M-HeLa cells. In kind it is functional.
The test system of experiment [12] is Human rhinovirus sp. The experiment can be described thus: Percent inhibitory activity at 8 uM against rhinoviral 21 serotype in a plaque inhibition assay using monolayers of M-HeLa cells. Format: functional.
Experiment [13] deals with Human rhinovirus sp. Nature of the experiment: Percent inhibitory activity at 8 uM against rhinoviral 3 serotype in a plaque inhibition assay using monolayers of M-HeLa cells. In kind it is functional.
Experiment [14] concerns Human rhinovirus sp. Nature of the experiment: Percent inhibitory activity at 8 uM against rhinoviral 4 serotype in a plaque inhibition assay using monolayers of M-HeLa cells. In kind it is functional.
In experiment [15] the test system is Human rhinovirus sp. The experiment can be described thus: Percent inhibitory activity at 8 uM against rhinoviral 5 serotype in a plaque inhibition assay using monolayers of M-HeLa cells. In kind it is functional.
Experiment [16] in a line: Percent inhibitory activity at 8 uM against rhinoviral-19 serotype in a plaque inhibition assay using monolayers of M-HeLa cells. Format: functional, Homo sapiens.
Experiment [17] in a line: Percent inhibitory activity at 8 uM against rhinoviral 2 serotype in a plaque inhibition assay using monolayers of M-HeLa cells. In kind it is functional, Homo sapiens.
Experiment [18] deals with Human rhinovirus sp. Nature of the experiment: Antiviral activity against rhinoviral 9 serotype in a plaque inhibition assay using monolayers of M-HeLa cells. Format: functional, organism-based.
Experiment [19] deals with Human rhinovirus sp. Nature of the experiment: Antiviral activity against rhinoviral 31 serotype in a plaque inhibition assay using monolayers of M-HeLa cells. In kind it is functional, organism-based.

What is called IC50 is the concentration needed to halve the response being measured. What is called Inhibition is the percentage by which the read-out fell short of the control. The low end stands for a response near the control, the high end for a response far below the control. In the case of `CN(C)c1nc(C(F)(F)F)nc2c1ncn2Cc1ccc(Cl)c(NC=O)c1`, the IC50 in experiment [1] turned out to be 6.3 µM; in experiment [2] it was 6.5 µM; in experiment [3] it was 6.7 µM; in experiment [4] it was 9.6 µM; in experiment [5], 1.9 µM; in experiment [6], 5 µM. In addition, the IC50 in [7] was found to be 8.7 µM; in experiment [8], 8 µM; in experiment [9], 0.56 µM; in [18] it was 1.8 µM; in experiment [19] it was 8 µM. Moreover, the Inhibition was determined as 43% in experiment [10]; 29% in [11]; 20% in experiment [12]; 40% in [13]; 34% in experiment [14]; 36% in experiment [15]. The Inhibition is 18% in experiment [16] and 35% in [17].
